Results on five compounds are retold here after patent US20030203372A1, “Analysis method” (priority 2000, published 2003).

The nature of assay [1]: Hypoxia response of the referenced genes/sequences, summary in cross-reference Table 26. In kind it is cell-based, human. The settings on record: direction of expression change of the gene/sequence in response to hypoxia.
The test system of a further assay is HIF. Nature of the assay: HRE-Luc luciferase reporter assay of HIF activity in transiently transfected 293T cells (evaluation of HIF prolyl hydroxylase inhibitors and EGLN3 isoforms). In kind it is cell-based, human. The settings on record: normoxia, even when full length EGLN3 protein or EGLN3 splice variant was over-expressed; MIMO 0.4 mM. Here is the method: As discussed above, the stability of HIF is controlled by proline hydroxylation, catalysed by the product of the EGLN3 gene which renders the HIF protein unstable. EGLN3 is only active in normoxia since the reaction that it catalyses requires oxygen.
Plasmid CMV-SVFL1 expresses full length EGLN3. Plasmid CMV-SVFL2 expresses the EGLN3 splice variant.
Three plasmid transfections were performed and pCIneo was used as the “stuffing”/control plasmid to fill the vacancies.
Transfected 293 cells were incubated under normoxia till the end of the experiment.

The subject of assay [2] is primary human macrophages. In words: Custom gene array, macrophages exposed to hypoxia and/or TNFα. In kind it is cell-based. The settings on record: relative to no cytokine, 20% oxygen = 1.

On to Vascular endothelial growth factor, for which the Hypoxia response result in assay [1] is given as “Increase”.

With Osteopontin, the Hypoxia response result in assay [1] is listed as “Increase”.

Consider `CCOC(=O)c1ccc(O)c(O)c1` [EDB], for which, in the assay with HIF, the HIF-PH inhibition entry is “work as HIF-PH inhibitors”.

As for Interleukin 8, the Hypoxia response result in assay [1] was “Increase”.

Turning to IL-17, in assay [2] (0.1% oxygen), the “Decidual protein induced by progesterone expression (clone p1C16, Seq ID 388)” value is reported as 0.51; the “EST expression (clone p1H4, Seq ID 214)” value was determined as 0.58; the “EST expression (clone p2A14, Seq ID 446)” value was found to be 0.40; the “Fatty-acid-Coenzyme A ligase, long-chain 2 expression (clone p1J11, Seq ID 466)” value is 1.28. Also, in assay [2] (0.1% oxygen), the “GAPDH expression (clone p1A11, Seq ID 254)” value is 1.84; the “GRO1 expression (clone p1I24, Seq ID 486)” value turned out to be 1.28; the “GRO2 expression (clone p1I19, Seq ID 482)” value is reported as 1.43; the “Glucose phosphate isomerase expression (clone p1C6, Seq ID 368)” value is reported as 1.43. Moreover, in assay [2] (0.1% oxygen), the “Interleukin 8 expression (clone p1B14, Seq ID 252)” value came to 7.13; the “Interleukin 8 expression (clone p1B15, Seq ID 252)” value is 9.71; the “Interleukin 8 expression (clone p1B16, Seq ID 252)” value is given as 12.2; the “Neutral sphingomyelinase (N-SMase) activation associated factor expression (clone p1J22, Seq ID 428)” value came out at 0.11. In assay [2] (0.1% oxygen), the “Plasminogen activator inhibitor, type 1 expression (clone p1B18, Seq ID 236)” value stood at 0.78; the “SCYA2 expression (clone p1P5, Seq ID 396)” value was 0.58; the “SCYA4 expression (clone p1K8, Seq ID 408)” value came out at 0.83; the “cDNA YI27F12 expression (clone p1E15, Seq ID 108)” value came to 0.56. In addition, the “hypothetical protein FLJ10206 expression (clone p1J6, Seq ID 40)” value in assay [2] (0.1% oxygen) worked out at 0.23. In addition, in assay [2] (20% oxygen), the “Decidual protein induced by progesterone expression (clone p1C16, Seq ID 388)” value came out at 0.73; the “EST expression (clone p1H4, Seq ID 214)” value was 0.49; the “EST expression (clone p2A14, Seq ID 446)” value is 0.56; the “Fatty-acid-Coenzyme A ligase, long-chain 2 expression (clone p1J11, Seq ID 466)” value is 1.63. In addition, in assay [2] (20% oxygen), the “GAPDH expression (clone p1A11, Seq ID 254)” value came to 2.60; the “GRO1 expression (clone p1I24, Seq ID 486)” value is given as 2.29; the “GRO2 expression (clone p1I19, Seq ID 482)” value is 2.26; the “Glucose phosphate isomerase expression (clone p1C6, Seq ID 368)” value was 2.14. In addition, in assay [2] (20% oxygen), the “Glycogen synthase 1 expression (clone p1G24, Seq ID 276)” value is given as 0.34; the “Hypoxia-inducible protein 2 expression (clone p1D8, Seq ID 272)” value stood at 0.44; the “Interleukin 8 expression (clone p1B14, Seq ID 252)” value turned out to be 9.34; the “Interleukin 8 expression (clone p1B15, Seq ID 252)” value is recorded as 7.36. For the same compound, in assay [2] (20% oxygen), the “Interleukin 8 expression (clone p1B16, Seq ID 252)” value is 9.52; the “Plasminogen activator inhibitor, type 1 expression (clone p1B18, Seq ID 236)” value was 0.49; the “SCYA2 expression (clone p1P5, Seq ID 396)” value amounted to 2.12; the “SCYA4 expression (clone p1K8, Seq ID 408)” value was found to be 2.48. In addition, the “hypothetical protein FLJ10206 expression (clone p1J6, Seq ID 40)” value in assay [2] (20% oxygen) is 0.22.
